# Structures can show the parent of a compound that is named as a salt.
# Tests used:
# [1] = test system: pain in the mid-back region; assay: Acute pain, comparison with codeine, urinary calculi, subject three (Example 32); assay type: in vivo, human; details: for pain relief: subject three
# Protocol: Methylsulfonylmethane was compared with codeine for the control of pain in subject three, a person who awakened in the early morning with excruciating pain in the mid-back region, so intense it was difficult to pin-point a specific region. […] Analgesic requirements were 1/2 grain codeine with aspirin every two hours. […] The intense pain returned. The subject was given 1.5 g of methylsulfonylmethane dissolved in 1/2 glass of warm water. At 0.5 hours after taking the methylsulfonylmethane, the pain had essentially disappeared. Methylsulfonylmethane (1.5 g/day) was continued until the afternoon of the third day, when X-ray confirmed that the calculi yet obstructed the ureter. Subject was switched again to codeine with aspirin (1/2 grain×2 hours). […] Methylsulfonylmethane was again administered (1.5 g×4 hours). On day 5 the calculi passed. Recovery was uneventful, requiring neither codeine, methylsulfonylmethane,nor a urinary tract antimicrobial.
# arthritis = assay: Canine arthritis and other sources of pain (Example 30); assay type: in vivo, dog; details: prior treatment
# Source text: In each case the methylsulfonylmethane was admixed with the animal's food just prior to feeding.
# This animal, although owned by a veterinarian, had not responded to a variety of therapeutic regimens over the previous 12 months. Methylsulfonylmethane was given to this dog in its food at a level of 1.5 grams b.i.d. X 1 month.
# It was mobile but walked with obvious difficulty and discomfort. The animals was refractory to both cortisone and phenylbutazone.
# The animal had not responded to either cortisone nor phenylbutazone and its condition was deteriorating rapidly. Methylsulfonylmethane was included in its diet at 1 gm/day b.i.d. After one week, the dog appeared to be pain-free.
# Trichomonas vaginalis = assay: Treatment of Trichomonas vaginalis infection in subjects (Example 28(a)); assay type: in vivo, human; details: human, in vivo
# Source text: Both had prior courses of therapy for this disorder without adequate response. […]
# One subject was later reinfected by their sexual partner but the reinfection was cleared employing a daily douche of 5% aqueous methylsulfonylmethane for one week.
# platelet count = assay: Low platelet count in lupus erythematosus (Example 22); assay type: in vivo, human; details: adult female, after prednisone therapy, before methylsulfonylmethane
# Source text: Methylsulfonylmethane administered orally raised the platelet count of an adult with lupus erythematosus from 84,000 (after prednisone therapy) to 200,000 over a 2-year period (1.5 gm/day in 3 doses).
# [2] = test system: scarification of the right cheek pouch; assay: Wound healing of the cheek pouch in hamsters (Example 17); assay type: in vivo; details: 0.1 gm/kg methylsulfonylmethane alone or 100 mg ascorbic acid alone in feed; controls day 4 and 5
# Protocol: Four sets of 5 hamsters were subject to scarification of the right cheek pouch, using standard methodology. One week prior to pouch injury, one set was started on a daily regimen of 0.1 gm/kg of methylsulfonylmethane in the diet of standard hamster feed, a second group was given 0.1 gm/kg of methylsulfonylmethane plus 100 mg of ascorbic acid in the same feed, a third group was given only 100 mg of ascorbic acid in the same feed, and the last group, fed only the feed, was held as control. Daily post-scarification examination was made to determine the rate of injury repair.
smiles,measurement,setting,value
CC(=O)Oc1ccccc1C(=O)O [Aspirin],pain relief,[1],ineffective
COc1ccc2c3c1O[C@H]1[C@@H](O)C=C[C@H]4[C@@H](C2)N(C)CC[C@@]341 [codeine],mental confusion,"[1]; day two, 1/2 grain codeine with aspirin every two hours",mental confusion
same,pain relief,[1],acceptable relief
"C[C@]12CCC(=O)C=C1CC[C@@H]1[C@@H]2C(=O)C[C@@]2(C)[C@H]1CC[C@]2(O)C(=O)CO [cortisone, reference compound]","response, Dog A",arthritis,not responsive
same,"response, Dog C",arthritis,refractory
same,"response, Dog D",arthritis,not responded
"Cc1ncc([N+](=O)[O-])n1CCO [metronidazole HCL, reference compound]",stomach upset and nausea,Trichomonas vaginalis,side effect experienced by one subject
"CCCCC1C(=O)N(c2ccccc2)N(c2ccccc2)C1=O [phenylbutazone, reference compound]","response, Dog A",arthritis,not responsive
same,"response, Dog C",arthritis,refractory
same,"response, Dog D",arthritis,not responded
"C[C@]12C=CC(=O)C=C1CC[C@@H]1[C@@H]2C(=O)C[C@@]2(C)[C@H]1CC[C@]2(O)C(=O)CO [prednisone, reference compound]",platelet count,platelet count,"84,000"
"O=C1O[C@H]([C@@H](O)CO)C(O)=C1O [vitamin C, ascorbic acid, reference compound]",day on which the 36-hour combination healing result was matched,[2],three
